In patent publication US9393204B2, “Methods and compositions employing bicifadine for treating disability or functional impairment associated with acute pain, chronic pain, or neuropathic disorders” (EBI Life Sciences, Inc., priority 2002, dated 2016):
“Also recorded” adds a separate entry of the source. Counter-ions that a name gives are not always drawn.

Key:
[1] = system: post-operative dental pain; experiment: Analgesic efficacy of bicifadine SR tablets in post-operative dental pain study; format: in vivo, human
Experimental: These conclusions are further substantiated by the use of rescue medication by subjects in the Stem et al. acute dental pain studies. Table 5 below summarizes information on the use of rescue medication for patients who took rescue medication among the various treatment groups in the clinical trial reported by Stern et al. (id.) A nonparametric analysis (Median Test) was conducted to evaluate the median latency to rescue medication.
Survival analysis (Kaplan-Meier method, 95% confidence) was performed to compare the treatment groups with regard to time-to-rescue medication. […] The analysis yielded a statistically significant difference among the treatment groups (Log-Rank test, Chi-square=26.9, df=4, P=0.0001).
(§1) Healthy adult male and female human subjects who underwent surgical extraction of two or more impacted third molars were enrolled in the study. Following cessation of the local anesthetic effect and onset of pain of at least 40 mm intensity on the 100 mm VAS, patients were randomized to into 1 of the 5 treatment arms (n˜108 per arm) and remained in the clinic for the subsequent 12 hours of the study. The study subjects were randomized to receive either a single dose of: 200 mg, 400 mg or 600 mg bicifadine SR tablets, Tramadol 100 mg, or Placebo. Analgesia ratings were obtained over a 12 h post-dosing period. Rescue medication (acetaminophen) was available, but no analgesia measures were taken after the use of rescue medication by a given patient. A subset of 150 patients provided blood samples at 0.5 hr and hourly intervals following dosing with study medication for the purpose of determining bicifadine levels (n=90).
The main efficacy endpoints utilized in the overall study (n˜540) were the individual assessment of Pain Severity and Pain Relief scores at a given time point; the derived scores (PID, PRID, SPID, SPRID, TOTPAR), and the global improvement. The last observation carried forward (LOCF) approach was used to estimate change over time for those patients who used rescue medication. For the full study efficacy evaluations, one-way analysis of covariance with baseline pain severity as a covariate was applied. The global tests which included all treatment arms were followed by post-hoc comparisons of the individual treatment arms vs. placebo.
The relationship between mean pain relief ratings (PRR) and mean plasma bicifadine levels was determined at three exemplary plasma level ranges: between 0-500 ng/ml, 500-1000 ng/ml, and >1000 ng/ml, respectively. A clear positive relationship was observed across 3 ranges of bicifadine levels. In particular, bicifadine plasma concentrations in the >1000 ng/ml range were associated with a PR score approximately 3 times as high as plasma concentrations in the 0-500 ng/ml range (p<0.001, Hierarchical Linear Model analysis).
The probability of treatment response as a function of bicifadine blood concentration levels was also determined. Association between the probability of treatment response and bicifadine blood concentration levels was investigated with the widely known Generalized Estimating Equation (GEE) approach. For the purpose of the GEE analyses described here, bicifadine blood concentration was treated as a continuous independent (predictor) variable. Treatment (analgesic) response served as a dichotomous (yes, no) dependent variable in the GEE model. In particular, treatment response for each individual patient for each of the time points was defined as a Pain Relief Rating of 3 or more (range 0-4).

[2] = system: chronic low back pain (CLBP); experiment: Chronic low back pain (CLBP) study, bi-daily dosing; format: in vivo, human
Experimental: The present study evaluated the therapeutic efficacy of a reduced dosing regimen employing bicifadine in a bi-daily (BID) dosing protocol to treat chronic low back pain (CLBP). More than 800 study subjects were recruited in this study, and a subset of these subjects was administered 400 mg of a sustained release oral dosage form (formula M; example 15) of bicifadine BID to evaluate the long-term analgesic efficacy of bicifadine for treating CLBP. […] The following outcome measures were assessed in the study:
Inclusion criteria for study subjects, as selected for other studies herein, included the following: Subjects were at least 18 years of age. If subject was female and of childbearing potential, the subject had to have a negative serum pregnancy test during the screening period. Subjects were required to have […] during the screening period.
Other exclusionary criteria in this study included: Low back pain due to acute fracture, infection, severe osteoporosis, malignancy, marked scoliosis, or severe congenital malformation such as spina bifida; Receipt of an epidural injection of corticosteroid in the lower back within 1 month prior to the baseline visit; Use of any antidepressant for pain or sleep (including SSRIs or SNRIs), anti-epileptic, or muscle relaxant, or receipt of transcutaneous electrical nerve stimulation, chiropractic adjustment, or acupuncture within 3 weeks prior to the baseline visit; Use of any antidepressant (including SSRIs or SNRIs) for depression within 3 months prior to the baseline visit; Use of any opioid analgesic or benzodiazepine (or other sedative-hypnotic) within 2 weeks prior to the baseline visit; Use of any NSAID (except aspirin<81 mg per day or <325 mg every other day for cardiac prophylaxis and except ibuprofen) or any non-opioid analgesic (except acetaminophen) within 1 week, or acetaminophen or ibuprofen within 60 hours, prior to the baseline visit; Active malignancy of any type or history of a malignancy within 5 years prior to the first dose of study medication (patients with treated localized basal or squamous cell carcinoma of the skin within 5 years are permitted); Active GI disease (including any GI surgery that, in the Investigator's opinion, would interfere with the absorption of the study medication), or a chronic or acute renal or hepatic disorder; Mental instability, known substance abuse, history of clinically significant depression or alcoholism, or incapacity of being compliant with the requirements of the study; Any clinically significant cardiovascular, renal, endocrine, hepatic, immunologic, respiratory, neurologic, gastrointestinal, psychiatric, or hematologic disease, or any underlying serious medical condition that would preclude patient's participation in the study; and, other standard, relevant exclusion criteria.
Patients who qualified for enrollment into the study completed the PSR test, Roland-Morris Disability Questionnaire, Short Form McGill Pain Questionnaire (SF-MPQ) and the SF-36 quality of life survey at the baseline visit and at various time points throughout the study.
Study subjects were randomized on a 25:6 basis to receive either bicifadine 400 mg BID or SOC treatment, respectively. SOC treatment was provided as any appropriate pharmacological analgesic treatment selected by the investigator based on the subjects' baseline and ongoing presentation. Subjects were permitted to reduce the dose for tolerability reasons, first to bicifadine 300 mg BID, and then, if necessary, to bicifadine 200 mg BID.
Summary statistics, including observed means and standard deviations along with mean change from baseline were summarized by visit for each outcome measure. Incidence of discontinuation due to lack of efficacy and its 95% confidence interval were likewise calculated. The median and its 95% confidence interval and a Kaplan-Meier plot were provided for Time to Discontinuation due to lack of efficacy and other reasons. […]

acute inflammatory pain = conditions: animal model of acute inflammatory pain; cited from earlier work
neuropathic pain = experiment: Spinal nerve ligation (Chung) model; conditions: in vivo
[3] = system: acute, nociceptive pain following dental surgery; conditions: cited from earlier work
acute pain = experiment: Acute pain studies (acute dental pain and bunionectomy pain); format: in vivo, human; conditions: unit doses of about 200 mg, 400 mg or 600 mg
[4] = Pharmacokinetics of bicifadine SR tablets in acute dental pain study; format: in vivo, human; conditions: 90 patients
Experimental: as §1
Plasma time course profiles were determined in a subset of 30 subjects (15 male/15 female) from each treatment group.

[5] = patients with low back pain and radiating pain

Question: For `COc1cccc(C2(O)CCCCC2CN(C)C)c1` (centres unmarked) [tramadol, reference compound], which “use of rescue medication versus placebo (time-to-rescue, Log-Rank)” value ([1]; 100 mg, P=0.0001) is on record?
Answer: Its value is “significantly less likely to use rescue medication”.

Question: Which results are given for `Cc1ccc(C23CNCC2C3)cc1` (racemic) [Bicifadine HCl, (±)-1-(4-methylphenyl)-3-azabicyclo[3.1.0]hexane hydrochloride]?
Answer: therapeutic efficacy from pain relief data (VAS) ([2]; BID dosing, 4.5 month period, versus SOC): comparable to that of standard of care (SOC) treatment; improved functional/activity results ([2]; BID dosing, versus SOC): comparable to those observed among SOC-treated subjects; VAS pain scores compared to placebo ([2]; baseline RDQ score greater than 17): significantly reduced; subjects with at least a 50% reduction in VAS scores, relative to placebo ([2]; baseline RDQ score greater than 17, hydrochloride): at least three times as many; also recorded: roughly three times the percentage; percentage of subjects with 50% or greater reduction in RDQ scores, relative to placebo (less than 15%) ([2]; baseline RDQ>17, 400-800 mg/day): roughly twice this percentage; disability scores on the RDQ versus placebo ([2]; baseline RDQ>17, 400-800 mg/day, hydrochloride): significant activity for reversing disabilities and enhancing functional/activity performance; also recorded: significantly decreased; improvement in VAS pain score compared to placebo [2, 5]: 11 mm; responsiveness to treatment versus patients with only localized back pain [2, 5]: two times more responsive; activity in the Randall-Selitto test (acute inflammatory pain): potent and active; efficacy in the spinal nerve ligation (Chung) model (neuropathic pain): effective; efficacy relative to codeine and tramadol [3]: as effective as codeine and tramadol; SPRID-6 and other derived analgesia scores versus placebo ([1]; 200 mg single dose): better than placebo on some measures; SPRID-6 and other derived analgesia scores versus placebo ([1]; 400 mg single dose): statistically superior to placebo; SPRID-6 and other derived analgesia scores versus placebo ([1]; 600 mg single dose): statistically superior to placebo; drug levels associated with significant analgesic efficacy ([1]; acute dental pain): 500 to 1000 ng/mL; minimally effective dose ([1]; acute dental pain): 200 mg; plasma bicifadine levels associated with the greatest pain relief ([1]; acute dental pain): > 1000 ng/mL; plasma drug levels not associated with significant analgesic effects ([1]; acute dental pain): ≤ 500 ng/mL; Odds Ratio of Response (Pain Relief Rating of 3 or more) ([1]; for an increase of 500 ng/ml in bicifadine blood levels, GEE, p=0.006): 1.59; PR score at plasma concentrations >1000 ng/ml relative to 0-500 ng/ml range ([1]; p<0.001, Hierarchical Linear Model): approximately 3 times; period of analgesic efficacy for effectively treating acute pain (acute pain): up to 6 hours; relationship between bicifadine dose and AUC [4]: clear dose proportional relationship
